In patent US20180252704A1, “SCREENING ASSAY TO IDENTIFY IDO1 AND/OR TDO MODULATORS” (Hoffmann-La Roche Inc., priority 2015, published 2018):

Molecular target: T1, human TDO (Homo sapiens, UniProt P48775)
T1 construct: expressed in transfected cells; pTet-On plus pTRE2hyg-TDO2
Assay: cell based fluorescence assay of TDO activity in HepG2-Tet-on-TDO *25 cells (kynurenine detected with Sensor 1), compared with the prior art biochemical TDO assay
Settings: IC50 cell-based assay versus biochemical assay
Method: Assay Methods: Cells were seeded 10,000 cells/well in the Cell Plate and incubated at 37° C. and 5% CO2 in the 95% humidified cell culture incubator. Cells were then induced with 1 μg/ml of doxycyline for 24 h to achieve full expression of IDO or TDO. Non-induced cells were used as 100% inhibition control. After washing 3 times with 60 μl of 1× HBSS (37° C.), cells were equilibrated with 60 μl of 1× HBSS in the cell culture incubator for 30 min. After an-other 3 times washing with 60 μl of 1× HBSS (37° C.), cells were treated with compounds for 10 min before adding the substrate, L-tryptophan, to a final concentration of 80 μM. The assay was carried out for 4 h at 37° C. and 5% CO2 in the cell culture incubator. The reaction was then stopped by transfer of 30 μl/well of supernatant into the Assay Plate. 10 μl/well of 30% (w/v) TCA were added and followed by application of Sensor 1 to a final concentration of 10 μM. After brief centrifugation, the fluorescence was measured at Ex: 546, Em: 586nm with a Paradigm (Molecular devices) plate reader. [table]

T1 sequence (P48775 whole entry): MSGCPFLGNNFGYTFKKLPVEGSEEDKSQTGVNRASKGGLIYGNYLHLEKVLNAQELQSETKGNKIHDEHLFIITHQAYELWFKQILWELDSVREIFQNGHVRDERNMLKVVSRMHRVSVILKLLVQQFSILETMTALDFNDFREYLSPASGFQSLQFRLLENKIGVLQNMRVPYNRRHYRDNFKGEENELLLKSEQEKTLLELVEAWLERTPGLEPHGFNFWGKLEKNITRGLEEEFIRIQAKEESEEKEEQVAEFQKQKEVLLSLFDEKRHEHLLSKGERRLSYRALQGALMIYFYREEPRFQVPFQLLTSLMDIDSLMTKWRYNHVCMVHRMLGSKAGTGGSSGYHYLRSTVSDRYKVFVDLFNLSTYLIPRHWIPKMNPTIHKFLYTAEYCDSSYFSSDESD

NS(=O)(=O)NCCNc1nonc1/C(=N/O)Nc1ccc(F)c(Br)c1 [INCB024360, (Z)-N-(3-bromo-4-fluorophenyl)-N′-hydroxy-4-(2-(sulfamoylamino)ethylamino)-1,2,5-oxadiazole-3-carboximidamide]
right-shift of IC50 from biochemical assay to cell-based assay in TDO enzyme activity: Over 100 fold
